# Experimental data: US20220135591A1, “HETEROCYCLIC COMPOUNDS AS INHIBITORS OF MONOACYLGLYCEROL LIPASE (MAGL)” (Hoffmann-La Roche Inc., priority 2019, published 2022)
# Biological target: T1, MAGL (recombinant wild-type) (Homo sapiens, UniProt Q99685)
# T1 sequence (Q99685 1-303): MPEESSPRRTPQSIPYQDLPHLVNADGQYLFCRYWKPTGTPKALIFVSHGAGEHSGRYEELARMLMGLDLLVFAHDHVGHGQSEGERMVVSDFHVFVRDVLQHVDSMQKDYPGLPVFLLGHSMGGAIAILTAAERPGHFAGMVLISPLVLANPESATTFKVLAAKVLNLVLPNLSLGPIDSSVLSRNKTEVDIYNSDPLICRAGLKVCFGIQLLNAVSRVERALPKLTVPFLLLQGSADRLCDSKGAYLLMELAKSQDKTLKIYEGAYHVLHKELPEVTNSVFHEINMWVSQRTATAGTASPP
# Experiment: 4-NPA assay: MAGL inhibitory activity by hydrolysis of 4-nitrophenylacetate, absorbance at 405 nm
# Assay type: biochemical
# Settings: 4-NPA assay (values without footnote [b])
# Procedure, shortened: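 Final assay: 1 nM MAGL and 300 μM 4-nitrophenylacetate in 50 mM Tris, 1 mM EDTA, at RT. Compounds (25 μM–1.7 nM, 3-fold steps) were preincubated 15 min with enzyme. A405 was read 5 min after substrate addition and again after 80 min; activity was taken as the difference between reads.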
row,Structure (SMILES),IC50 [nM]
1,"Cc1ccc2oc(N3CCN(C(=O)c4ccc(-c5noc(C(C)(C)C)n5)nc4)CC3)nc2n1 [Example 62, [6-(5-tert-butyl-1,2,4-oxadiazol-3-yl)-3-pyridyl]-[4-(5-methyloxazolo[4,5-b]pyridin-2-yl)piperazin-1-yl]methanone]",871
2,"CC(C)(C)c1cn(-c2ccc(C(=O)N3CCN(c4nc5nc(Cl)ccc5o4)CC3)cc2)cn1 [Example 63, [4-(4-tert-butylimidazol-1-yl)phenyl]-[4-(5-chlorooxazolo[4,5-b]pyridin-2-yl)piperazin-1-yl]methanone]",20
3,"Cc1cc(C(=O)N2CCN(c3nc4nc(Cl)ccc4o3)CC2)ccc1OCC(C)(C)C [Example 64, [4-(5-chlorooxazolo[4,5-b]pyridin-2-yl)piperazin-1-yl]-[4-(2,2-dimethylpropoxy)-3-methyl-phenyl]methanone]",5
4,"Cc1ccc2oc(N3CCN(C(=O)c4ccc(OCC(C)(C)C)c(C)c4)CC3)nc2n1 [Example 65, [4-(2,2-dimethylpropoxy)-3-methyl-phenyl]-[4-(5-methyloxazolo[4,5-b]pyridin-2-yl)piperazin-1-yl]methanone]",11
5,"Cc1ccc2oc(N3CCN(C(=O)c4ccc(OCC5(C)CC5)c(Cl)c4)CC3)nc2n1 [Example 66, [3-chloro-4-[(1-methylcyclopropyl)methoxy]phenyl]-[4-(5-methyloxazolo[4,5-b]pyridin-2-yl)piperazin-1-yl]methanone]",87
6,"Cc1ccc2oc(N3CCN(C(=O)c4ccc(C5(C)COC5)cc4)CC3)nc2n1 [Example 67, (4-(5-methyloxazolo[4,5-b]pyridin-2-yl)piperazin-1-yl)(4-(3-methyloxetan-3-yl)phenyl)methanone]",367
7,"Cc1ccc2oc(N3CCN(C(=O)c4ccc(C5(F)CC5)cc4)CC3)nc2n1 [Example 68, (4-(1-fluorocyclopropyl)phenyl)(4-(5-methyloxazolo[4,5-b]pyridin-2-yl)piperazin-1-yl)methanone]",4180
8,"CC1(COc2ccc(C(=O)N3CCN(c4nc5nc(Cl)ccc5o4)CC3)cc2F)CC1 [Example 69, [4-(5-chlorooxazolo[4,5-b]pyridin-2-yl)piperazin-1-yl]-[3-fluoro-4-[(1-methylcyclopropyl)methoxy]phenyl]methanone]",108
9,"Cc1ccc2oc(N3CCN(C(=O)c4ccc(-n5cnc(C(C)(C)C)n5)cc4)CC3)nc2n1 [Example 70, [4-(3-tert-butyl-1,2,4-triazol-1-yl)phenyl]-[4-(5-methyloxazolo[4,5-b]pyridin-2-yl)piperazin-1-yl]methanone]",43
10,"Cc1ccc2oc(N3CCN(C(=O)c4ccc(OCC5(C)CC5)c(F)c4)CC3)nc2n1 [Example 71, [3-fluoro-4-[(1-methylcyclopropyl)methoxy]phenyl]-[4-(5-methyloxazolo[4,5-b]pyridin-2-yl)piperazin-1-yl]methanone]",382
11,"CC(C)(C)c1ncn(-c2ccc(C(=O)N3CCN(c4nc5nc(Cl)ccc5o4)CC3)cc2)n1 [Example 72, [4-(3-tert-butyl-1,2,4-triazol-1-yl)phenyl]-[4-(5-chlorooxazolo[4,5-b]pyridin-2-yl)piperazin-1-yl]methanone]",27
12,"Cn1c(CC(C)(C)C)nnc1-c1ccc(C(=O)N2CCN(c3nc4nc(Cl)ccc4o3)CC2)cc1 [Example 73, [4-(5-chlorooxazolo[4,5-b]pyridin-2-yl)piperazin--yl]-[4-[5-(2,2-dimethylpropyl)-4-methyl-1,2,4-triazol-3-yl]phenyl]methanone]",409
13,"Cc1ccc2oc(N3CCN(C(=O)c4cnc(OCC5(C)CC5)c(C)c4)CC3)nc2n1 [Example 142, (5-methyl-6-((1-methylcyclopropyl)methoxy)pyridin-3-yl)(4-(5-methyloxazolo[4,5-b]pyridin-2-yl)piperazin-1-yl)methanone]",106
14,"Cc1ccc2oc(N3CCN(C(=O)c4cnc(OCC5(C(F)(F)F)CC5)c(C)c4)CC3)nc2n1 [Example 143, (5-methyl-6-((1-(trifluoromethyl)cyclopropyl)methoxy)pyridin-3-yl)(4-(5-methyloxazolo[4,5-b]pyridin-2-yl)piperazin-1-yl)methanone]",77

# Other lines, results leading:
row,IC50 [nM],Structure (SMILES)
1,105,"O=C(c1cnc(OCC2(C(F)(F)F)CC2)c(F)c1)N1CCN(c2nc3nc(Cl)ccc3o2)CC1 [Example 144, (4-(5-chlorooxazolo[4,5-b]pyridin-2-yl)piperazin-1-yl)(5-fluoro-6-((1-(trifluoromethyl)cyclopropyl)methoxy)pyridin-3-yl)methanone]"
2,216,"CC1(COc2ncc(C(=O)N3CCN(c4nc5nc(Cl)ccc5o4)CC3)cc2F)CC1 [Example 145, (4-(5-chlorooxazolo[4,5-b]pyridin-2-yl)piperazin-1-yl)(5-fluoro-6-((1-methylcyclopropyl)methoxy)pyridin-3-yl)methanone]"
3,135,"Cc1ccc2oc(N3CCN(C(=O)c4cnc(OCC5(C)CC5)c(Cl)c4)CC3)nc2n1 [Example 146, (5-chloro-6-((1-methylcyclopropyl)methoxy)pyridin-3-yl)(4-(5-methyloxazolo[4,5-b]pyridin-2-yl)piperazin-1-yl)methanone]"
4,128,"Cc1ccc2oc(N3CCN(C(=O)c4cnc(OCC5(C(F)(F)F)CC5)c(Cl)c4)CC3)nc2n1 [Example 147, (5-chloro-6-((1-(trifluoromethyl)cyclopropyl)methoxy)pyridin-3-yl)(4-(5-methyloxazolo[4,5-b]pyridin-2-yl)piperazin-1-yl)methanone]"
5,1520,"Cc1ccc2oc(N3CCN(C(=O)c4cc(Cl)cc(N5CCS(=O)(=O)CC5)c4)CC3)nc2n1 [Example 175, [3-chloro-5-(1,1-dioxo-1,4-thiazinan-4-yl)phenyl]-[4-(5-methyl-[1,3]oxazolo[4,5-b]pyridin-2-yl)piperazin-1-yl]methanone]"
6,4150,"CC(=O)N1CCN(c2cc(Cl)cc(C(=O)N3CCN(c4nc5nc(C)ccc5o4)CC3)c2)CC1 [Example 176, 1-[4-[3-chloro-5-[4-(5-methyl-[1,3]oxazolo[4,5-b]pyridin-2-yl)piperazine-1-carbonyl]phenyl]piperazin-1-yl]ethanone]"
7,3160,"Cc1ccc2oc(N3CCN(C(=O)c4cc(Cl)cc(N5CCC(F)(F)CC5)c4)CC3)nc2n1 [Example 177, [3-chloro-5-(4,4-difluoropiperidin-1-yl)phenyl]-[4-(5-methyl-[1,3]oxazolo[4,5-b]pyridin-2-yl)piperazin-1-yl]methanone]"
8,2490,"Cc1ccc2oc(N3CCN(C(=O)c4cc(Cl)cc(N5CCC(CO)CC5)c4)CC3)nc2n1 [Example 178, [3-chloro-5-[4-(hydroxymethyl)piperidin-1-yl]phenyl]-[4-(5-methyl-[1,3]oxazolo[4,5-b]pyridin-2-yl)piperazin-1-yl]methanone]"
9,3940,"Cc1ccc2oc(N3CCN(C(=O)c4cc(Cl)cc(N5CC6(CC(O)C6)C5)c4)CC3)nc2n1 [Example 179, [3-chloro-5-(6-hydroxy-2-azaspiro[3.3]heptan-2-yl)phenyl]-[4-(5-methyl-[1,3]oxazolo[4,5-b]pyridin-2-yl)piperazin-1-yl]methanone]"
10,810,"Cc1ccc2oc(N3CCN(C(=O)c4ccc(N5CC6(CCCC6)C5)c(-c5ncc[nH]5)c4)CC3)nc2n1 [Example 180, [4-(2-azaspiro[3.4]octan-2-yl)-3-(1H-imidazol-2-yl)phenyl]-[4-(5-methyl-[1,3]oxazolo[4,5-b]pyridin-2-yl)piperazin-1-yl]methanone]"
11,180,"Cc1ccc2oc(N3CCN(C(=O)c4cc(Cl)cc(-c5ccc(CO)cc5)c4)CC3)nc2n1 [Example 181, [3-chloro-5-[4-(hydroxymethyl)phenyl]phenyl]-[4-(5-methyl-[1,3]oxazolo[4,5-b]pyridin-2-yl)piperazin-1-yl]methanone]"
12,379,"Cc1ccc2oc(N3CCN(C(=O)c4cc(OCCC(F)(F)F)cc(-c5ccc(CO)cc5)c4)CC3)nc2n1 [Example 182, [3-[4-(hydroxymethyl)phenyl]-5-(3,3,3-trifluoropropoxy)phenyl]-[4-(5-methyl-[1,3]oxazolo[4,5-b]pyridin-2-yl)piperazin-1-yl]methanone]"
13,10,"Cc1ccc2oc(N3CCN(C(=O)c4ccc(OCC5(C(F)(F)F)CC5)c(-c5ccc(CO)cc5)c4)CC3)nc2n1 [Example 183, [3-[4-(hydroxymethyl)phenyl]-4-[[1-(trifluoromethyl)cyclopropyl]methoxy]phenyl]-[4-(5-methyl-[1,3]oxazolo[4,5-b]pyridin-2-yl)piperazin-1-yl]methanone]"
14,78,"Cc1ccc2oc(N3CCN(C(=O)c4ccc(OCCC(F)(F)F)c(-c5ccc(CO)cc5)c4)CC3)nc2n1 [Example 184, [3-[4-(hydroxymethyl)phenyl]-4-(3,3,3-trifluoropropoxy)phenyl]-[4-(5-methyl-[1,3]oxazolo[4,5-b]pyridin-2-yl)piperazin-1-yl]methanone]"
15,302,"Cc1ccc2oc(N3CCN(C(=O)c4cc(OCC5(C(F)(F)F)CC5)cc(-c5ccc(CO)cc5)c4)CC3)nc2n1 [Example 185, [3-[4-(hydroxymethyl)phenyl]-5-[[1-(trifluoromethyl)cyclopropyl]methoxy]phenyl]-[4-(5-methyl-[1,3]oxazolo[4,5-b]pyridin-2-yl)piperazin-1-yl]methanone]"
16,12,"Cc1ccc2oc(N3CCN(C(=O)c4ccc(-c5noc(CC(C)(C)C)n5)c(-c5ccc(CO)cc5)c4)CC3)nc2n1 [Example 186, [4-[5-(2,2-dimethylpropyl)-1,2,4-oxadiazol-3-yl]-3-[4-(hydroxymethyl)phenyl]phenyl]-[4-(5-methyl-[1,3]oxazolo[4,5-b]pyridin-2-yl)piperazin-1-yl]methanone]"
